Test system: NCI-H196 SCLC complex tumor spheroid viability
Assay: Anticancer human tumor NCI-H196 cell line growth inhibition;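 note: spheroids exposed to compounds for 7 days before readout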;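 for viability, T/C: 100% = DMSO vehicle control wells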
Conditions: for IC50: curve of first compound; for viability, T/C: stronger effect = lower value
Outline: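 Single agents and combinations were tested on spheroids built from tumor cells plus HUVEC and hMSC, at half-log dilutions starting at or near clinical Cmax, else 10 microM; final DMSO 0.25% (v/v).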

[1] = second compound 30 pM, first compound 0.0316 µM
[2] = second compound 30 pM, first compound 0.1 µM
[3] = second compound 30 pM, first compound 0.316 µM
[4] = second compound 30 pM, first compound 1 µM
[5] = second compound 30 pM, first compound 3.16 µM
[6] = second compound 30 pM, first compound 10 µM
[7] = second compound 94.9 pM, first compound 0.0316 µM
[8] = second compound 94.9 pM, first compound 0.1 µM
[9] = second compound 94.9 pM, first compound 0.316 µM
[10] = second compound 94.9 pM, first compound 1 µM
[11] = second compound 94.9 pM, first compound 3.16 µM
[12] = second compound 94.9 pM, first compound 10 µM
[13] = second compound 0.0003 µM, first compound 0.0316 µM
[14] = second compound 0.0003 µM, first compound 0.1 µM
[15] = second compound 0.0003 µM, first compound 0.316 µM
[16] = second compound 0.0003 µM, first compound 1 µM
[17] = second compound 0.0003 µM, first compound 3.16 µM
[18] = second compound 0.0003 µM, first compound 10 µM
[19] = second compound 0.000949 µM, first compound 0.0316 µM
[20] = second compound 0.000949 µM, first compound 0.1 µM
[21] = second compound 0.000949 µM, first compound 0.316 µM
[22] = second compound 0.000949 µM, first compound 1 µM
[23] = second compound 0.000949 µM, first compound 3.16 µM
[24] = second compound 0.000949 µM, first compound 10 µM
[25] = second compound 0.003 µM, first compound 0.0316 µM
[26] = second compound 0.003 µM, first compound 0.1 µM
[27] = second compound 0.003 µM, first compound 0.316 µM
[28] = second compound 0.003 µM, first compound 1 µM
[29] = second compound 0.003 µM, first compound 3.16 µM
[30] = second compound 0.003 µM, first compound 10 µM

Question: Which results are given for CC1COCCN1c1cc(-c2ccnn2C)c2ccnc(-c3ccn[nH]3)c2n1 (stereo not given) + COc1cc2c(cc1O)CCNC21CSC2c3c(OC(C)=O)c(C)c4c(c3C(COC1=O)N1C(O)C3Cc5cc(C)c(OC)c(O)c5C(C21)N3C)OCO4?
Answer: IC50 (second compound 30 pM): 4.19 µM; IC50 (second compound 94.9 pM): 3.43 µM; IC50 (second compound 0.0003 µM): 2.5 µM; IC50 (second compound 0.000949 µM): 0.711 µM; IC50 (second compound 0.003 µM): < 0.0316 µM; viability, T/C [1]: 90.5%; viability, T/C [2]: 74.5%; viability, T/C [3]: 67.2%; viability, T/C [4]: 56.7%; viability, T/C [5]: 51.8%; viability, T/C [6]: 46.3%; viability, T/C [7]: 89.1%; viability, T/C [8]: 73.8%; viability, T/C [9]: 67%; viability, T/C [10]: 58%; viability, T/C [11]: 50.8%; viability, T/C [12]: 44.5%; viability, T/C [13]: 81.8%; viability, T/C [14]: 67.1%; viability, T/C [15]: 64%; viability, T/C [16]: 59.2%; viability, T/C [17]: 45.9%; viability, T/C [18]: 42.5%; viability, T/C [19]: 72.2%; viability, T/C [20]: 64%; viability, T/C [21]: 56.3%; viability, T/C [22]: 51.7%; viability, T/C [23]: 31.9%; viability, T/C [24]: 32.6%; viability, T/C [25]: 9.26%; viability, T/C [26]: 6.28%; viability, T/C [27]: 10.1%; viability, T/C [28]: 3.62%; viability, T/C [29]: 0.78%; viability, T/C [30]: 0.39%

Question: Which results are given for COc1cc(C)[nH]c(=O)c1CN1CCc2c(Cl)cc(C(OC)C3COC3)c(Cl)c2C1=O (stereo not given) + COc1cc2c(cc1O)CCNC21CSC2c3c(OC(C)=O)c(C)c4c(c3C(COC1=O)N1C(O)C3Cc5cc(C)c(OC)c(O)c5C(C21)N3C)OCO4?
Answer: IC50 (second compound 30 pM): > 10 µM; IC50 (second compound 94.9 pM): > 10 µM; IC50 (second compound 0.0003 µM): > 10 µM; IC50 (second compound 0.000949 µM): > 10 µM; IC50 (second compound 0.003 µM): < 0.0316 µM; viability, T/C [1]: 104%; viability, T/C [2]: 101%; viability, T/C [3]: 95.8%; viability, T/C [4]: 101%; viability, T/C [5]: 97.8%; viability, T/C [6]: 98.4%; viability, T/C [7]: 107%; viability, T/C [8]: 96.5%; viability, T/C [9]: 103%; viability, T/C [10]: 95.4%; viability, T/C [11]: 99.1%; viability, T/C [12]: 104%; viability, T/C [13]: 100%; viability, T/C [14]: 105%; viability, T/C [15]: 98.8%; viability, T/C [16]: 97.1%; viability, T/C [17]: 94.6%; viability, T/C [18]: 97.8%; viability, T/C [19]: 83.7%; viability, T/C [20]: 80.3%; viability, T/C [21]: 83%; viability, T/C [22]: 80.9%; viability, T/C [23]: 87%; viability, T/C [24]: 77.9%; viability, T/C [25]: 18.9%; viability, T/C [26]: 5.38%; viability, T/C [27]: 7.56%; viability, T/C [28]: 12.5%; viability, T/C [29]: 5.22%; viability, T/C [30]: 2.69%

Question: What does the source list for Cc1cc(C)c(CNC(=O)c2cc(-c3ccc(CN4CCOCC4)cc3)cc3c2cnn3C2CCCC2)c(=O)[nH]1 + COc1cc2c(cc1O)CCNC21CSC2c3c(OC(C)=O)c(C)c4c(c3C(COC1=O)N1C(O)C3Cc5cc(C)c(OC)c(O)c5C(C21)N3C)OCO4?
Answer: IC50 (second compound 30 pM): > 10 µM; IC50 (second compound 94.9 pM): > 10 µM; IC50 (second compound 0.0003 µM): > 10 µM; IC50 (second compound 0.000949 µM): > 10 µM; IC50 (second compound 0.003 µM): < 0.0316 µM; viability, T/C [1]: 106%; viability, T/C [2]: 104%; viability, T/C [3]: 105%; viability, T/C [4]: 103%; viability, T/C [5]: 97.2%; viability, T/C [6]: 105%; viability, T/C [7]: 109%; viability, T/C [8]: 101%; viability, T/C [9]: 99.5%; viability, T/C [10]: 104%; viability, T/C [11]: 107%; viability, T/C [12]: 106%; viability, T/C [13]: 103%; viability, T/C [14]: 105%; viability, T/C [15]: 105%; viability, T/C [16]: 105%; viability, T/C [17]: 102%; viability, T/C [18]: 104%; viability, T/C [19]: 87.8%; viability, T/C [20]: 94.6%; viability, T/C [21]: 91.8%; viability, T/C [22]: 83.9%; viability, T/C [23]: 85%; viability, T/C [24]: 85%; viability, T/C [25]: 6.27%; viability, T/C [26]: 7.07%; viability, T/C [27]: 9.74%; viability, T/C [28]: 5.44%; viability, T/C [29]: 5.81%; viability, T/C [30]: 3.71%

Question: Cc1sc2c(c1C)C(c1ccc(Cl)cc1)=NC(CC(=O)Nc1ccc(O)cc1)c1nnc(C)n1-2 (stereo not given) + COc1cc2c(cc1O)CCNC21CSC2c3c(OC(C)=O)c(C)c4c(c3C(COC1=O)N1C(O)C3Cc5cc(C)c(OC)c(O)c5C(C21)N3C)OCO4 was tested. Which IC50 (second compound 30 pM) did it give?
Answer: 0.631 µM

Question: What about the IC50 (second compound 94.9 pM) of the same compound?
Answer: 1.02 µM

Question: What about the IC50 (second compound 0.0003 µM) of the same compound?
Answer: 2.54 µM

Question: And the IC50 (second compound 0.000949 µM)?
Answer: > 3 µM

Question: And the IC50 (second compound 0.003 µM)?
Answer: < 0.00949 µM

Question: And the viability, T/C (second compound 30 pM, first compound 0.00949 µM)?
Answer: 94.4%

Question: What about the viability, T/C (second compound 30 pM, first compound 0.03 µM) of the same compound?
Answer: 96.4%

Question: What about the viability, T/C (second compound 30 pM, first compound 0.0949 µM) of the same compound?
Answer: 93.8%

Question: What about the viability, T/C (second compound 30 pM, first compound 0.3 µM) of the same compound?
Answer: 69.3%

Question: And the viability, T/C (second compound 30 pM, first compound 0.949 µM)?
Answer: 39.7%

Question: What about the viability, T/C (second compound 30 pM, first compound 3 µM) of the same compound?
Answer: 21.8%

Question: And the viability, T/C (second compound 94.9 pM, first compound 0.00949 µM)?
Answer: 103%

Question: And the viability, T/C (second compound 94.9 pM, first compound 0.03 µM)?
Answer: 100%

Question: What about the viability, T/C (second compound 94.9 pM, first compound 0.0949 µM) of the same compound?
Answer: 95%

Question: What about the viability, T/C (second compound 94.9 pM, first compound 0.3 µM) of the same compound?
Answer: 80.1%

Question: What about the viability, T/C (second compound 94.9 pM, first compound 0.949 µM) of the same compound?
Answer: 51.4%

Question: What about the viability, T/C (second compound 94.9 pM, first compound 3 µM) of the same compound?
Answer: 26.9%

Question: What about the viability, T/C (second compound 0.0003 µM, first compound 0.00949 µM) of the same compound?
Answer: 110%

Question: And the viability, T/C (second compound 0.0003 µM, first compound 0.03 µM)?
Answer: 110%

Question: What about the viability, T/C (second compound 0.0003 µM, first compound 0.0949 µM) of the same compound?
Answer: 102%

Question: What about the viability, T/C (second compound 0.0003 µM, first compound 0.3 µM) of the same compound?
Answer: 88.7%

Question: What about the viability, T/C (second compound 0.0003 µM, first compound 0.949 µM) of the same compound?
Answer: 65.7%

Question: And the viability, T/C (second compound 0.0003 µM, first compound 3 µM)?
Answer: 47.4%

Question: What about the viability, T/C (second compound 0.000949 µM, first compound 0.00949 µM) of the same compound?
Answer: 89.6%

Question: What about the viability, T/C (second compound 0.000949 µM, first compound 0.03 µM) of the same compound?
Answer: 88%

Question: And the viability, T/C (second compound 0.000949 µM, first compound 0.0949 µM)?
Answer: 80.9%

Question: What about the viability, T/C (second compound 0.000949 µM, first compound 0.3 µM) of the same compound?
Answer: 87.3%

Question: What about the viability, T/C (second compound 0.000949 µM, first compound 0.949 µM) of the same compound?
Answer: 68.2%

Question: And the viability, T/C (second compound 0.000949 µM, first compound 3 µM)?
Answer: 52.7%

Question: And the viability, T/C (second compound 0.003 µM, first compound 0.00949 µM)?
Answer: 6.44%

Question: What about the viability, T/C (second compound 0.003 µM, first compound 0.03 µM) of the same compound?
Answer: 6.85%

Question: What about the viability, T/C (second compound 0.003 µM, first compound 0.0949 µM) of the same compound?
Answer: 6.03%

Question: And the viability, T/C (second compound 0.003 µM, first compound 0.3 µM)?
Answer: 8.32%

Question: What about the viability, T/C (second compound 0.003 µM, first compound 0.949 µM) of the same compound?
Answer: 2.93%

Question: What about the viability, T/C (second compound 0.003 µM, first compound 3 µM) of the same compound?
Answer: 0.8%

Question: Which results are given for [2H]c1nc(C)nc([2H])c1-c1cc(NC[C@@H](C)c2cccc3c(C(=O)NC)ccnc23)ncn1 + COc1cc2c(cc1O)CCNC21CSC2c3c(OC(C)=O)c(C)c4c(c3C(COC1=O)N1C(O)C3Cc5cc(C)c(OC)c(O)c5C(C21)N3C)OCO4?
Answer: IC50 (second compound 30 pM): > 10 µM; IC50 (second compound 94.9 pM): > 10 µM; IC50 (second compound 0.0003 µM): > 10 µM; IC50 (second compound 0.000949 µM): > 10 µM; IC50 (second compound 0.003 µM): < 0.0316 µM; viability, T/C [1]: 102%; viability, T/C [2]: 102%; viability, T/C [3]: 101%; viability, T/C [4]: 104%; viability, T/C [5]: 99.4%; viability, T/C [6]: 97.6%; viability, T/C [7]: 105%; viability, T/C [8]: 108%; viability, T/C [9]: 101%; viability, T/C [10]: 106%; viability, T/C [11]: 97.8%; viability, T/C [12]: 104%; viability, T/C [13]: 102%; viability, T/C [14]: 106%; viability, T/C [15]: 106%; viability, T/C [16]: 105%; viability, T/C [17]: 104%; viability, T/C [18]: 105%; viability, T/C [19]: 92.5%; viability, T/C [20]: 86%; viability, T/C [21]: 88.2%; viability, T/C [22]: 83.5%; viability, T/C [23]: 83.4%; viability, T/C [24]: 93.7%; viability, T/C [25]: 5.55%; viability, T/C [26]: 6.42%; viability, T/C [27]: 3.96%; viability, T/C [28]: 6.02%; viability, T/C [29]: 4.53%; viability, T/C [30]: 2.75%
